In US10314870B2, “Tropism modified cancer terminator virus (Ad.5/3 CTV;AD.5/3-CTV-M7)” (priority 2012, dated 2019):

Columns and labels:
[1] = tested on: primary human GBM cells (GBM6, GBM12); experiment: Cell death by trypan blue exclusion in primary human GBM cells; type: cell-based
From the text: The pooled cell pellets were resuspended and mixed with trypan blue dye.

[2] = cited from earlier work
[3] = tested on: GBM6 cells; experiment: Colony formation assay with Calcusyn analysis; type: cell-based, human; details: GBM cells
Experimental: GBM6 cells were plated as single cells (500-2,500 per 60-mm dish, in sextuplicate). […] Forty-eight h later cells were washed free of drugs and colonies were permitted to form for 20 days. (n=3, +/−SEM). Using the Calcusyn for Windows program we calculated the fraction affected (Fa) and the Combination Index (CI). A CI value of less than 1.00 indicates a synergy of interaction.

[4] = tested on: GBM6 cells; experiment: Autophagy, LC3-GFP vesicle formation; type: cell-based, human
Experimental: FIG. 19A-D. Induction of ER stress and autophagy plays a role in the interaction between MDA-7/IL-24 and HDACIs. Panel A. GBM6 cells were transfected in quadruplicate with a plasmid to express an LC3 (ATG8)-GFP fusion protein and in parallel transfected with scrambled siRNA (siSCR) or an siRNA to knock down Beclin/expression. Twenty-four h after transfection cells were treated with GST or GST-MDA-7 (20 nM) and/or SBHA (3 μM). Cells (a representative of 40 per well per time point) were examined 6 h, 12 h and 24 h after treatment using an Axiovert microscope (x40) for the formation of punctate vesicles containing LC3-GFP. Data are plotted as the number of LC3-GFP vesicles per cell (n=-2, +/− SEM) (*p<0.05 greater than GST+VEH; **p<0.05 greater than GST-MDA-7+VEH). Panel B. GBM6 cells were transfected with scrambled siRNA (siSCR) or an siRNA to knock down Beclinl expression. Twenty-four h after transfection cells were treated with GST or GST-MDA-7 (20 nM) and/or SBHA (3 μM). Cells were isolated 48 h later and viability determined by trypan blue exclusion (n=3, +/− SEM) (#p<0.05 less than corresponding value in siSCR cells). Panel C. GBM6 cells were transfected with an empty vector control plasmid or a plasmid to express dominant negative PERK. […] Cells were isolated 6 h after exposure and the phosphorylation of PERK and eIF2α determined (representative n=2). […]

[5] = tested on: PDAC cell lines; experiment: MTT cell viability assay in pancreatic cancer cell lines; type: cell-based, human; details: 200 μM
Experimental: FIGS. 13A-D. Cancer-specific oncolytic effects of CTV-M7 in pancreatic cancer cells. Pancreatic cancer cells were treated with non-replicating Ad.5-mda-7 or Ad.5/3-mda-7 as well as conditional replication-competent Ads (CRCA) i.e., Ad.5-CTV-M7 and Ad.5/3-CTV-M7 and MTT assays were performed after 3 days. IC50 was calculated using GraphPad Prism 5.0. Points; mean±S.E. of three different experiments each performed in quadruplicate.
Pancreatic cancer cell lines were infected with Ad in incomplete medium for 3 h followed by treatment with Perillyl alcohol (POH) (200 μM) in complete medium (10% FBS) for 72 h, and cell proliferation assays were performed at O.D. 560 nm using cell proliferation assays after adding 100 μl of 3-(4,5-dimethylthiazol-2-yl)-2,5-diphenyltetrazolium bromide (Sigma Aldrich) (MTT) dye (1 mg/ml) (Sigma-Aldrich).

[6] = tested on: MIA PaCa-2 and BxPC-3 cells; experiment: ROS formation, carboxy-H2DCFDA fluorescence; type: cell-based, human; details: 200 μM
Experimental: FIG. 14. Temporal kinetics of reactive oxygen species (ROS) formation induced by POH. MIA PaCa-2 and BxPC-3 cells were stained with carboxy-H2DCF-DA in PBS for 30 min followed by treatment of POH, and fluorescence was measured using a Flurometer with a green filter at the indicated time points. The readings noted were the difference between POH-treated group compared to untreated control.
To determine ROS production, cells were stained with 100 μl of 10 μM carboxy-H2DCFDA (Molecular Probes™, Invitrogen) in PBS for 30 min followed by treatment with Perillyl alcohol and fluorescence was measured with a Fluorometer using a green filter at the indicated time points.

[7] = tested on: MIA PaCa-2/luc xenografts; experiment: MIA PaCa-2/luc xenografts on both flanks, Ad/MB by tail vein with UTMD on left tumor; type: in vivo, nude mice; details: POH 75 mg/kg i.p. daily; Ad.5-vec+POH compared to Ad.5/3-vec
Experimental: FIG. 11A-E. Ad.5/3-CTV-M7 in combination with POH completely eradicates primary and distant tumors in nude mice bearing human pancreatic tumor xenografts. Tumor xenografts generated from MIA-PaCa-2 cells stably expressing a luciferase gene (MIA PaCa-2-luc) were established in both the left and right flanks of nude mice. Tumors on the left flank were sonoporated for 10 min following tail-vein injection of the indicated complement treated Ad/MB complex, and treated as described in Materials and Methods section for 3 weeks starting from day 14 (1 injection/week). POH was administered i.p. daily for 4 weeks from day 1 of implantation of cells in nude mice. (A) Bioluminescence imaging (BLI) was performed using Xenogen In Vivo Imaging System (IVIS). BLI was performed every week and luminescence was quantified and tumor growth response curve of the left flank (B) and right flank or distant tumor (C) was plotted. (D) Secreted MDA-7/IL-24 in blood serum was measured using an MDA-7/IL-24 ELISA kit. (E) There was significant increase in ‘bystander’ effect of MDA-7/IL-24 in inhibiting in vivo tumor growth as measured by BLI. […]
Athymic nude mice were injected s.c. in both flanks with 5×10^6 MIA PaCa-2/luc (a stable clone of MIA PaCa-2 cells containing integrated pGL-3/luc). […] Images were analyzed by Living Image software. […]

## CCOC(=O)C1=C(N)Oc2ccc(Br)cc2C1C(C#N)C(=O)OCC (centres unmarked) [HA14-1]
[1]; GBM6, Ad.5-mda-7 moi 10, obatoclax 0-200 nM or HA14-1 0-10 μM, 24 h
  effect on lethality of Ad.5-mda-7: enhanced the lethality of Ad.5-mda-7

## C=C(C)[C@@H]1CC=C(C(=O)O)CC1 [Perillic acid]
[2]; plasma
  plasma concentration associated with minimal toxicities: 500 µM

## O=C(CCCCCCC(=O)NO)NO [SBHA, Suberohydroxamic acid]
[1]; GBM6, GBM12 infected with Ad.5-mda-7 moi 10, Na Valproate 0.3-1.0 mM, SBHA 0.3-5.0 μM, 48 h, dose-dependent
  effect on lethality of MDA-7/IL-24: enhanced the lethality of MDA-7/IL-24
[3]
  interaction with MDA-7/IL-24 protein in colony formation: synergized
[4]; SBHA 3 μM with GST-MDA-7 20 nM
  effect on MDA-7/IL-24 stimulated autophagy levels: enhanced MDA-7/IL-24 stimulated autophagy levels

## CCCC(CCC)C(=O)[O-].[Na+] [sodium valproate]
[3]
  interaction with MDA-7/IL-24 protein in colony formation: synergized

## C=C(C)[C@@H]1CC=C(CO)CC1 [POH, perillyl alcohol]
[5]
  lethality and proliferation of PDAC cell lines: not lethal and does not affect proliferation
[6]; 24 h
  ROS levels at 24 h: baseline levels
[6]; time course
  time of maximum ROS levels: 6 h
[6]; wild type and mutant K-ras pancreatic cell lines
  ROS induction: sufficient to induce significant amounts of ROS
[7]
  effect of the POH dose with empty vector on tumor growth: non-toxic but therapeutically inactive
[2]; POH 800-1600 mg/m^2/dose
  side effects: minimal side effects
[2]; plasma
  stability and detection in plasma: very unstable and cannot be detected in plasma

B1: GST-MDA-7: bacterially synthesized GST-MDA-7 protein (protein)
chain: QEFHFGPCQVKGVVPQKLWEAFWAVKDTMQAQDNITSARLLQQEVLQNVSDAESCYLVHTLLEFYLKTVFKNYHNRTVEVRTLKSFSTLANNFVLIVSQLQPSQENEMFSIRDSAHRRFLLFRRAFKQLDVEAALTKALGEVDILLTWMQKFYKL
[4]; GST-MDA-7 20 nM, 6 h, 12 h, 24 h, time-dependent
  autophagy (LC3-GFP vesicle) levels: increased autophagy
